Experiments:
[1] = target: T1, TcFPPS (Trypanosoma cruzi farnesyl diphosphate synthase) (Trypanosoma cruzi, UniProt Q8WS26); experiment: Isothermal titration calorimetry of bisphosphonate binding to TcFPPS; conditions: ITC, 28 °C; for ΔG / ΔH / ΔS: single binding site per monomer
T1 sequence (Q8WS26 64-425): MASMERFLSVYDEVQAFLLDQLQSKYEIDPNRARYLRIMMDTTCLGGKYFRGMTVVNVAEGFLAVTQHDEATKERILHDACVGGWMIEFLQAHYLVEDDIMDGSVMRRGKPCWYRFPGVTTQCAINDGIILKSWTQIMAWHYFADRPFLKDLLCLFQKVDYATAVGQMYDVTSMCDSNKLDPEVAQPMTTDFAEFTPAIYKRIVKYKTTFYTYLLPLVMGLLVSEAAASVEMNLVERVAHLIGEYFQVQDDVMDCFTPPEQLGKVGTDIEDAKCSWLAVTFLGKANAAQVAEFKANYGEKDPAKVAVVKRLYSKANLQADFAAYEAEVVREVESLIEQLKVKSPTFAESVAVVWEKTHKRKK

[2] = system: TcFPPS; conditions: TcFPPS enzymatic activity; IC50 were calculated before; cited from earlier work
[3] = system: T. cruzi; conditions: in vivo assays; cited from earlier work

CCCNCC(P(=O)(O)O)P(=O)(O)O [Compound 10, [2-(n-propylamino)ethane-1,1-diyl]bisphosphonic acid]
ΔG [1]: -10.43 kcal/mol | ΔH [1]: 6.35 ± 0.07 kcal/mol | ΔS [1]: 56.1 cal/mol/K | IC50 [2]: 38 nM

CCCCCNCC(P(=O)(O)O)P(=O)(O)O [Compound 11, [2-(n-pentylamino)ethane-1,1-diyl]bisphosphonic acid]
ΔG [1]: -8.15 kcal/mol | ΔH [1]: 5.22 ± 0.11 kcal/mol | ΔS [1]: 44.7 cal/mol/K | IC50 [2]: 1840 nM

CCCCCCNCC(P(=O)(O)O)P(=O)(O)O [Compound 12, [2-(n-hexylamino)ethane-1,1-diyl]bisphosphonic acid]
ΔG [1]: -8.72 kcal/mol | ΔH [1]: 7.87 ± 0.11 kcal/mol | ΔS [1]: 55.4 cal/mol/K | unfavorable binding enthalpy, excess over the other inhibitors ([1]; compared with the other n-alkyl inhibitors): 1.5 to 2.0 kcal/mol | IC50 [2]: 490 nM

CCCCCCCNCC(P(=O)(O)O)P(=O)(O)O [Compound 13, [2-(n-heptylamino)ethane-1,1-diyl]bisphosphonic acid]
ΔG [1]: -9.88 kcal/mol | ΔH [1]: 5.65 ± 0.09 kcal/mol | ΔS [1]: 51.9 cal/mol/K | ΔH, 2-site model, first value ([1]; values calculated using 2-site model (two different sites per dimer), first site): 6.39 ± 0.36 kcal/mol | ΔH, 2-site model, second value ([1]; values calculated using 2-site model (two different sites per dimer), second site): 4.62 ± 0.44 kcal/mol | IC50 [2]: 58 nM

O=P(O)(O)C(CNC1CCCCC1)P(=O)(O)O [Compound 14, [2-(cyclohexylamino)ethane-1,1-diyl]bisphosphonic acid]
IC50 [2]: 13 nM

O=P(O)(O)C(O)(Cc1cccnc1)P(=O)(O)O [risedronate]
survival of T. cruzi-infected mice [3]: significantly increase survival

From PMC4710095 (Journal of medicinal chemistry, 2012)
